Source: ChEMBL document CHEMBL5346978, “Exploration of Tetrahydroisoquinoline- and Benzo[c]azepine-Based Sphingosine 1-Phosphate Receptor 1 Agonists for the Treatment of Multiple Sclerosis” (J Med Chem, 2023)
pEC50: −log10 of the molar value. The source made the active and inactive calls. No cut-off for these calls is given here.

Experiments:
[1] = target: T1, Sphingosine 1-phosphate receptor 1 (Homo sapiens, UniProt P21453); experiment: Agonist activity at S1P1 (unknown origin) expressed in human HEK293/Galpha15 cells assessed as Ca2+ activation at 1 uM measured for 2 hrs by FLIPR analysis relative to control; assay type: functional, cell-based; details: filed as agonist
T1 sequence (P21453 whole entry): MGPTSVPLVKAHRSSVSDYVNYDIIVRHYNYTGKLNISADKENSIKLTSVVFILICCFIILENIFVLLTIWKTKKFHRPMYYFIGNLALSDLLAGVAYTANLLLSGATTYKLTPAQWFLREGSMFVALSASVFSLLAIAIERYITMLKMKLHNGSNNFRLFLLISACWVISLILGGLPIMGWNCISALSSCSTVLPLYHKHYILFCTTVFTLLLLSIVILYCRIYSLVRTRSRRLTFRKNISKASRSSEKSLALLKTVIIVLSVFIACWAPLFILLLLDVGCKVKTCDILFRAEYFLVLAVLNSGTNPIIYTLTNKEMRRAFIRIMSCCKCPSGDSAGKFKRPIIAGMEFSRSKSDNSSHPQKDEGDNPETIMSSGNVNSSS

[2] = target: T1, Sphingosine 1-phosphate receptor 1; experiment: Agonist activity at S1P1 (unknown origin) expressed in human HEK293/Galpha15 cells assessed as Ca2+ activation measured for 2 hrs by FLIPR analysis; assay type: functional, cell-based
[3] = target: T1, Sphingosine 1-phosphate receptor 1; experiment: Agonist activity at S1P1 (unknown origin) expressed in PathHunter CHO-K1 EDG1 beta-arrestin cells assessed as beta-arrestin2 recruitment at 1 uM incubated for 90 mins by chemiluminescence based assay relative to control; assay type: functional, cell-based; details: filed as agonist
[4] = target: T1, Sphingosine 1-phosphate receptor 1; experiment: Agonist activity at S1P1 (unknown origin) expressed in PathHunter CHO-K1 EDG1 beta-arrestin cells assessed as beta-arrestin2 recruitment incubated for 90 mins by chemiluminescence based assay; assay type: functional, cell-based
[5] = Microsomal stability in human liver microsomes assessed as parent compound remaining preincubated for 5 mins followed by NADPH addition measured after 30 mins by LC-MS/MS analysis; assay type: ADME, Microsome; details: time 35 min, read-out: Stability
[6] = Microsomal stability in rat liver microsomes assessed as parent compound remaining preincubated for 5 mins followed by NADPH addition measured after 30 mins by LC-MS/MS analysis; assay type: ADME, Microsome; details: time 35 min, read-out: Stability
[7] = Microsomal stability in mouse liver microsomes assessed as parent compound remaining preincubated for 5 mins followed by NADPH addition measured after 30 mins by LC-MS/MS analysis; assay type: ADME, Microsome; details: time 35 min, read-out: Stability
[8] = target: T2, CYP1A2 (Homo sapiens, UniProt P05177); experiment: Inhibition of CYP1A2 in human liver microsomes using phenacetin as substrate assessed as residual activity at 10 uM preincubated for 5 mins followed by substrate addition and measured after 15 mins in presence of NADPH by LC-MS/MS analysis; assay type: ADME, Microsome; details: probe phenacetin, time 20 min, read-out: Activity
T2 sequence (P05177 whole entry): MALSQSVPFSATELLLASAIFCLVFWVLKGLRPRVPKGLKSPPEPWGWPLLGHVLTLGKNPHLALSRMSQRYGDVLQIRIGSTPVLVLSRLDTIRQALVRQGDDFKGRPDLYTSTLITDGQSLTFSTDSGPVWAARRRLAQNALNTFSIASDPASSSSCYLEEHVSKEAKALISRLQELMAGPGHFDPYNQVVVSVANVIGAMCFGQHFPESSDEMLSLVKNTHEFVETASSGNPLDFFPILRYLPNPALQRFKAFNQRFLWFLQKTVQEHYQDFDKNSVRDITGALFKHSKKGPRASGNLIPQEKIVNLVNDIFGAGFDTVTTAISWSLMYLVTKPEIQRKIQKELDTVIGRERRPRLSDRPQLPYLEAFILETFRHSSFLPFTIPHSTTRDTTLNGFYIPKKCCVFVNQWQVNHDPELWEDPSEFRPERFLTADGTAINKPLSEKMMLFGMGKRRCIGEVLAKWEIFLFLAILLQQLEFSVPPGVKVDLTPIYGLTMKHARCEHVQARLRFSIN

[9] = target: CYP2C9 (Homo sapiens, UniProt P11712); experiment: Inhibition of CYP2C9 in human liver microsomes using diclofenac as substrate assessed as residual activity at 10 uM preincubated for 5 mins followed by substrate addition and measured after 15 mins in presence of NADPH by LC-MS/MS analysis; assay type: ADME, Microsome; details: probe diclofenac, time 20 min, read-out: Activity
CYP2C9, sequence (P11712 whole entry): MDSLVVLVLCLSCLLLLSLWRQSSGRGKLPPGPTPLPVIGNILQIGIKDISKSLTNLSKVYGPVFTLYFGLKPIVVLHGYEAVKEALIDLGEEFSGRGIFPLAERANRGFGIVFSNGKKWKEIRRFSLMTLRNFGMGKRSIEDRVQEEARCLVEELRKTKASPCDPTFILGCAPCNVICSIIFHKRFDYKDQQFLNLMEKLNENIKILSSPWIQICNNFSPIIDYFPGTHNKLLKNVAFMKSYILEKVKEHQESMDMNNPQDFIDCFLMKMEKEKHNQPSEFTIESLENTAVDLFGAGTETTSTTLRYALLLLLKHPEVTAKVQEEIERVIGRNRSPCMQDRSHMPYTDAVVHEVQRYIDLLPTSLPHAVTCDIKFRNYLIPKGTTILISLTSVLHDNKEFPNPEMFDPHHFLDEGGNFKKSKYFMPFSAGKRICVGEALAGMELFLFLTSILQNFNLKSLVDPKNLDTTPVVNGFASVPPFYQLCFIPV

[10] = target: CYP2D6 (Homo sapiens, UniProt P10635); experiment: Inhibition of CYP2D6 in human liver microsomes using dextromethorphan as substrate assessed as residual activity at 10 uM preincubated for 5 mins followed by substrate addition and measured after 15 mins in presence of NADPH by LC-MS/MS analysis; assay type: ADME, Microsome; details: probe dextromethorphan, time 20 min, read-out: Activity
CYP2D6, sequence (P10635 whole entry): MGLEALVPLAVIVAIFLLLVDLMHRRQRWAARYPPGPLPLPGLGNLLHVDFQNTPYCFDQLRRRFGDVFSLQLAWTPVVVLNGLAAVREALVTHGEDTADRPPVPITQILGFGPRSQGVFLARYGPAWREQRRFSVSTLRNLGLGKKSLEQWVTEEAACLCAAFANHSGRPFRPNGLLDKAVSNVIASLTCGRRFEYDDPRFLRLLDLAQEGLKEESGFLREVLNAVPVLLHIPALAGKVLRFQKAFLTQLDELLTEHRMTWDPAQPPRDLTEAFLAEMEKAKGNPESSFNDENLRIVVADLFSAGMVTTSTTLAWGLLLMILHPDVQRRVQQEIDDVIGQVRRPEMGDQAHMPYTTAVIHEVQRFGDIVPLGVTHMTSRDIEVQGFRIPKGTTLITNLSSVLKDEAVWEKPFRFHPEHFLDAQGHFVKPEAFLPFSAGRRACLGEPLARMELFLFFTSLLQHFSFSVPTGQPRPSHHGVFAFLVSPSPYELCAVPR

[11] = target: CYP3A4 (Homo sapiens, UniProt P08684); experiment: Inhibition of CYP3A4 in human liver microsomes using midazolam as substrate assessed as residual activity at 10 uM preincubated for 5 mins followed by substrate addition and measured after 15 mins in presence of NADPH by LC-MS/MS analysis; assay type: ADME, Microsome; details: probe midazolam, time 20 min, read-out: Activity
CYP3A4, sequence (P08684 whole entry): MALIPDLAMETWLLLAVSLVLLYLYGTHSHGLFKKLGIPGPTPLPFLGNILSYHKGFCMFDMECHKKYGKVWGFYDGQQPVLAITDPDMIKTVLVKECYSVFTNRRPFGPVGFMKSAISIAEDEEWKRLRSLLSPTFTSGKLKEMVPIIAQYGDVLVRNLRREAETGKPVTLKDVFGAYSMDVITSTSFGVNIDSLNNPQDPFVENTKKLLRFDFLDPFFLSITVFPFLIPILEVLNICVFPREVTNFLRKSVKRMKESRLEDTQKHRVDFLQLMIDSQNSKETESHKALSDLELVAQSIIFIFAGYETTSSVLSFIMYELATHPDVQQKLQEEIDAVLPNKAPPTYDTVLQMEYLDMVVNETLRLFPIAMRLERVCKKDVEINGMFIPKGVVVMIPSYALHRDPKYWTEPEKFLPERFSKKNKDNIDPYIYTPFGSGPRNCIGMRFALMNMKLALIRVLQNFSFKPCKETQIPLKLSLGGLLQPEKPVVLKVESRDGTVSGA

[12] = Tmax in ICR mouse at 10 mg/kg, po measured at 0.25 to 12 hrs by LC-MS/MS analysis; assay type: ADME, organism-based; details: in vivo, time 0.25-12 hrs
[13] = Cmax in ICR mouse at 10 mg/kg, po measured at 0.25 to 12 hrs by LC-MS/MS analysis; assay type: ADME, organism-based; parameters: time upper 12 hrs, dose 10 mg/kg, time lower 0.25 hrs, route po; details: in vivo
[14] = Half life in ICR mouse at 1 mg/kg, iv measured at 0.25 to 12 hrs by LC-MS/MS analysis; assay type: ADME, organism-based; details: in vivo, time 0.25-12 hrs
[15] = Half life in ICR mouse at 10 mg/kg, po measured at 0.25 to 12 hrs by LC-MS/MS analysis; assay type: ADME, organism-based; details: in vivo, time 0.25-12 hrs
[16] = AUClast in ICR mouse at 1 mg/kg, iv measured at 0.25 to 12 hrs by LC-MS/MS analysis; assay type: ADME, organism-based; parameters: time lower 0.25 hrs, dose 1 mg/kg, time upper 12 hrs, route iv; details: in vivo
[17] = AUClast in ICR mouse at 10 mg/kg, po measured at 0.25 to 12 hrs by LC-MS/MS analysis; assay type: ADME, organism-based; parameters: time 0.25-12 hrs, dose 10 mg/kg, route po; details: in vivo
[18] = Observed clearance in ICR mouse at 1 mg/kg, iv measured at 0.25 to 12 hrs by LC-MS/MS analysis; assay type: ADME, organism-based; details: in vivo, time 0.25-12 hrs
[19] = Observed MRT (infinitive) in ICR mouse at 10 mg/kg, po measured at 0.25 to 12 hrs by LC-MS/MS analysis; assay type: ADME, organism-based; details: in vivo, time 0.25-12 hrs
[20] = Observed MRT (infinitive) in ICR mouse at 1 mg/kg, iv measured at 0.25 to 12 hrs by LC-MS/MS analysis; assay type: ADME, organism-based; details: in vivo, time 0.25-12 hrs
[21] = Observed volume of distribution at steady state in ICR mouse at 1 mg/kg, iv measured at 0.25 to 12 hrs by LC-MS/MS analysis; assay type: ADME, organism-based; details: in vivo, time 0.25-12 hrs, read-out: Vdss
[22] = Oral bioavailability in ICR mouse at 10 mg/kg measured at 0.25 to 12 hrs by LC-MS/MS analysis; assay type: ADME, organism-based; details: in vivo, time 0.25-12 hrs
[23] = test system: Mus musculus; experiment: In vivo agonist activity at S1P1 in mouse assessed as reduction in peripheral lymphocyte count at 10 mg/kg, po measured at 3 hrs; assay type: functional, organism-based
[24] = Cardiotoxicity in human iPSC-derived cardiomyocyte assessed as effect on intracellular cardiomyocyte contraction at 20 uM measured for 2 mins by FLIPR analysis; assay type: toxicity, cell-based; details: cardiac muscle cell
[25] = target: T3, Sphingosine 1-phosphate receptor 4 (Homo sapiens, UniProt O95977); experiment: Agonist activity at S1P4 (unknown origin) expressed in CHO cells assessed as Ca2+ activation; assay type: functional, cell-based
T3 sequence (O95977 whole entry): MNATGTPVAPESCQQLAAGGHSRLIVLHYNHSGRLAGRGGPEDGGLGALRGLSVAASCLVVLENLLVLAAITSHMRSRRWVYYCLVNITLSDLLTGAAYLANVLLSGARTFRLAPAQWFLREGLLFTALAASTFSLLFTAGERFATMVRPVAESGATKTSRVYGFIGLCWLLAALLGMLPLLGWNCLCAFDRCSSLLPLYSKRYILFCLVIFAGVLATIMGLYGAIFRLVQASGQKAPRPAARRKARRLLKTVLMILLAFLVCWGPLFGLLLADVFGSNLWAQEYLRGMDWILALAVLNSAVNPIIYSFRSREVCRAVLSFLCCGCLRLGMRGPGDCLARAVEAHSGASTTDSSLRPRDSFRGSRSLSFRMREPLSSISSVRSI

[26] = target: Sphingosine 1-phosphate receptor 3 (Homo sapiens, UniProt Q99500); experiment: Agonist activity at S1P3 (unknown origin) expressed in PathHunter CHO-K1 EDG1 beta-arrestin cells assessed as beta-arrestin recruitment; assay type: functional, cell-based
Sphingosine 1-phosphate receptor 3, sequence (Q99500 whole entry): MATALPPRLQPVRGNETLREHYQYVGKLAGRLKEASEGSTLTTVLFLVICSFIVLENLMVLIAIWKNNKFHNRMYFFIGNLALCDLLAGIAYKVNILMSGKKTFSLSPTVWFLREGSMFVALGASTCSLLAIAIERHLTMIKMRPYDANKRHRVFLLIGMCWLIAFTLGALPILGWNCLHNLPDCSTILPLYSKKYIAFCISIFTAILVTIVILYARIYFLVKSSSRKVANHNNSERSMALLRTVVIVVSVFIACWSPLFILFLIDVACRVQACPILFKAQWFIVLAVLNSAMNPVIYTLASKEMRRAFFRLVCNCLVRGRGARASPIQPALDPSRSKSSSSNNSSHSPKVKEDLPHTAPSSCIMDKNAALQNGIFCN

[27] = target: T3, Sphingosine 1-phosphate receptor 4; experiment: Agonist activity at S1P4 (unknown origin) expressed in PathHunter CHO-K1 EDG1 beta-arrestin cells assessed as beta-arrestin recruitment; assay type: functional, cell-based
[28] = Microsomal stability in rat liver microsomes assessed as parent compound remaining preincubated for 5 mins followed by NADPH addition measured after 60 mins by LC-MS/MS analysis; assay type: ADME, Microsome; details: time 65 min, read-out: Stability
[29] = Microsomal stability in mouse liver microsomes assessed as parent compound remaining preincubated for 5 mins followed by NADPH addition measured after 60 mins by LC-MS/MS analysis; assay type: ADME, Microsome; details: time 65 min, read-out: Stability
[30] = test system: Mus musculus; experiment: In vivo agonist activity at S1P1 in mouse assessed as reduction in peripheral lymphocyte count at 1 to 3 mg/kg, po measured at 3 hrs; assay type: functional, organism-based; details: dose 1-3 mg/kg
[31] = test system: Mus musculus; experiment: In vivo agonist activity at S1P1 in mouse assessed as reduction in peripheral lymphocyte count at 10 mg/kg, po measured at 6 hrs; assay type: functional, organism-based
[32] = test system: Mus musculus; experiment: In vivo agonist activity at S1P1 in po dosed mouse assessed as reduction in peripheral lymphocyte count measured at 6 hrs; assay type: functional, organism-based; details: dose 1-10 mg/kg
[33] = test system: Mus musculus; experiment: In vivo agonist activity at S1P1 in po dosed mouse assessed as reduction in peripheral lymphocyte count at 1 to 10 mg/kg, po measured after 24 hrs; assay type: functional, organism-based; details: dose 1-10 mg/kg
[34] = test system: Mus musculus; experiment: Protection against MOG35-55/CFA-induced experimental autoimmune encephalomyelitis C57BL/6 mouse model assessed as reduction disease progression at 10 mg/kg, po administered once a day for 23 days; assay type: functional, organism-based; details: time 23.0 day
[35] = Toxicity in C57BL/6 mouse assessed as body weight loss at 10 mg/kg, po administered once a day for 23 days; assay type: organism-based; details: in vivo, 552 h, time 23 day
[36] = target: Sphingosine 1-phosphate receptor 5 (Homo sapiens, UniProt Q9H228); experiment: Agonist activity at S1P5 (unknown origin) expressed in CHO cells assessed as Ca2+ activation; assay type: functional, cell-based
Sphingosine 1-phosphate receptor 5, sequence (Q9H228 whole entry): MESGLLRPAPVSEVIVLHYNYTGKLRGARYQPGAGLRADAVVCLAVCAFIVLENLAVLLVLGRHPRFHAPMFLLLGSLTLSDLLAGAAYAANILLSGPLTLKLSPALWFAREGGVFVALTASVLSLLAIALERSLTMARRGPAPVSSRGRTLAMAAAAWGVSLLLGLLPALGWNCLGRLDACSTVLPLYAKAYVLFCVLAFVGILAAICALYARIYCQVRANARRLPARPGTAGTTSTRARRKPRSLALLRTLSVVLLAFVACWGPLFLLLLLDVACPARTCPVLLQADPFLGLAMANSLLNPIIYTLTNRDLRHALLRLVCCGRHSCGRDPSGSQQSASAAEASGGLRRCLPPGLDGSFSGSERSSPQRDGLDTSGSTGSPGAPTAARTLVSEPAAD

[37] = target: Sphingosine 1-phosphate receptor 2 (Homo sapiens, UniProt O95136); experiment: Agonist activity at S1P2 (unknown origin) expressed in PathHunter CHO-K1 EDG1 beta-arrestin cells assessed as beta-arrestin recruitment; assay type: functional, cell-based
Sphingosine 1-phosphate receptor 2, sequence (O95136 whole entry): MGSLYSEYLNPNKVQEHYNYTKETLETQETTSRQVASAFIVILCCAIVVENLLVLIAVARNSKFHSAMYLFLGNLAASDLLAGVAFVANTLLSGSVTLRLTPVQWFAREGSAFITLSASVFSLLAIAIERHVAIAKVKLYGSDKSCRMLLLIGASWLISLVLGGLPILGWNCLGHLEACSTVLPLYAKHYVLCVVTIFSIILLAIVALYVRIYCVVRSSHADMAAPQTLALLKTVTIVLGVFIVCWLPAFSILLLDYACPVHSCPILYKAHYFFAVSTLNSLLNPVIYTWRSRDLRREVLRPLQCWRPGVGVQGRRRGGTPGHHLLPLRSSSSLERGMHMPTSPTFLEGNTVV

[38] = Cardiotoxicity in human iPSC-derived cardiomyocyte assessed as effect on intracellular cardiomyocyte contraction at 10 uM measured for 2 mins by FLIPR analysis; assay type: toxicity, cell-based; details: cardiac muscle cell

| SMILES | Activity [1] [%] | pEC50 [2] | Activity [3] [%] | pEC50 [4] | activity at 0.25 h, 10 µM [9] [%] | activity at 0.25 h, 10 µM [10] [%] | activity at 0.25 h, 10 µM [11] [%] | Tmax [12] [h] | Cmax [13] [ng/mL] | half-life [14] [h] | half-life [15] [h] | AUC(0-t) [16] [ng·h/mL] | AUC(0-t) [17] [ng·h/mL] | clearance [18] [mL/min/kg] | MRT inf [19] [h] | MRT inf [20] [h] | Vd [21] [L/kg] | bioavailability [22] [%] | Activity [23] | pEC50 [25] | other results |
| --- | --- | --- | --- | --- | --- | --- | --- | --- | --- | --- | --- | --- | --- | --- | --- | --- | --- | --- | --- | --- | --- |
| CC(C)Oc1ccc(COc2ccc3c(c2)CCN(S(=O)(=O)CCC(=O)O)C3)cc1C#N | 100 | 7.85 | 125 | 7.30 | 75.4 | 91.9 | 87.5 | 0.5 | 2290 | 2.4 | 1.3 | 925 | 4290 | 18.2 | 1.9 | 1 | 1.1 | 46.4 | Active |  | remaining at 0.5 h [5]: 90.2%; remaining at 0.5 h [6]: 93.8%; remaining at 0.5 h [7]: 100%; activity at 0.25 h, 10 µM [8]: 80.4% |
| CC(C)NCC(O)c1ccc(NS(C)(=O)=O)cc1 (stereo not given) [SOTALOL] |  |  |  |  |  |  |  |  |  |  |  |  |  |  |  |  |  |  |  |  | Activity [24]: Non-Toxic |
| CCCCCCCCCCCCC/C=C/[C@@H](O)[C@@H](N)COP(=O)(O)O |  |  |  |  |  |  |  |  |  |  |  |  |  |  |  |  |  |  |  | 8.05 | pEC50 [26]: 7.66; pEC50 [27]: 7.04 |
| CC(C)Oc1ccc(COc2ccc3c(c2)CCCN(S(=O)(=O)CCC(=O)O)C3)cc1C#N | 113 | 7.68 | 81 | 7.80 | 96.2 | 94.8 | 96.4 | 5 | 1130 | 0.6 | 1.8 | 593 | 1960 | 29 | 2.5 | 0.4 | 0.6 | 33 | Active | 4.48 | remaining at 1 h [28]: 62.2%; remaining at 1 h [29]: 67.1%; Activity [30]: Active; Activity [31]: Active; Activity [32]: Dose-Dependent Effect; Activity [33]: Active; Activity [34]: Active; Activity [35]: Non-Toxic; pEC50 [36]: 6.96; pEC50 [37]: < 4.00; pEC50 [26]: < 4.00; pEC50 [27]: 4.75; Activity [38]: Non-Toxic |
